Values of other authors, collected in publication PMC12141164, “Phase-1 study of vamotinib (PF-114), a 3rd generation BCR::ABL1 tyrosine kinase-inhibitor, in chronic myeloid leukaemia” (Annals of Hematology, 2025).
Like-named read-outs stand apart in the source and are kept apart here.

Legend:
Conditions in all cases: cited from earlier work
TIE2 = test system: TIE2
EPHA6 = test system: EPHA6
EPHA7 = test system: EPHA7
[1] = set-up: method as in PMID 35982483
ZAK = test system: ZAK
PDGFRa = test system: PDGFRa
VEGFR2 = test system: VEGFR2
TAK1 = test system: TAK1

| Structure (SMILES) | inhibition of TIE2 (TIE2) | inhibition of EPHA6 (EPHA6) | inhibition of EPHA7 (EPHA7) | most common non-hematologic adverse reaction ([1]; clinical evaluation) | drug related cardiovascular adverse events ([1]; recent clinical studies) | inhibition of ZAK (ZAK) | inhibition of PDGFRa (PDGFRa; off-target kinases) | inhibition of VEGFR2 (VEGFR2) | inhibition of TAK1 (TAK1) | inhibition of TIE2 (TIE2; kinase inhibition profiles) | inhibition of EPHA6 (EPHA6; kinase inhibition profiles) | inhibition of EPHA7 (EPHA7; kinase inhibition profiles) | inhibition of ZAK (ZAK; kinase inhibition profiles) | inhibition of PDGFRa (PDGFRa; kinase inhibition profiles) | inhibition of VEGFR2 (VEGFR2; kinase inhibition profiles) | inhibition of TAK1 (TAK1; kinase inhibition profiles) |
| --- | --- | --- | --- | --- | --- | --- | --- | --- | --- | --- | --- | --- | --- | --- | --- | --- |
| Cc1ccc(C(=O)Nc2ccc(CN3CCN(C)CC3)c(C(F)(F)F)c2)cc1C#Cc1cnc2[nH]ncc2c1 [olverembatinib] | potent inhibitor | not | not | skin pigmentation | some drug related cardiovascular adverse events, including vascular occlusions | potent inhibitor | among the off-target kinases | not | potent inhibitor |  |  |  |  |  |  |  |
| Cc1ccc(C(=O)Nc2ccc(CN3CCN(C)CC3)c(C(F)(F)F)c2)cc1C#Cc1cnc2cccnn12 [ponatinib] |  |  |  |  |  |  |  |  |  | inhibition | inhibition | inhibition | inhibition | potently inhibited | inhibition | inhibition |
